For one substance, LC3-II conversion and p62 degradation results are on record in US8802633B1, “Autophagy-inducing peptide analogs” (Board of Regents, The University of Texas System, priority 2013, dated 2014).

No end group written: not given here.

One assay has as its system LC3. In words: western blot detection of the conversion of LC3-I into LC3-II. Type of assay: cell-based. Particulars: 10 micomolar peptide, compared to 10 micomolar Tat-Beclin 1 compound. On the procedure: (§1) To further assess the components of the beclin1 peptide required for autophagy-inducing activity, a series of shorter peptides were developed. Activity was measured by biochemical autophagy assays including western blot detection of p62 (a protein degraded by autophagy) and western blot detection of the conversion of LC3-I into LC3-II (the lipidated autophagosome-associated form of LC3).
A general note: Immunoblotting shows a protein as a band on a membrane.

Another assay has as its system p62. Kind of assay: western blot detection of p62 (a protein degraded by autophagy). Type of assay: cell-based. Particulars: 10 micomolar peptide, compared to 10 micomolar Tat-Beclin 1 compound. On the procedure:
as §1

For the substance “Tat-GG-VFNATFEIWHD (Tat-GGVFNATFEIWHD) [tat protein transduction domain linked through a diglycine linker to Beclin 1 residues 269-279 with H275E and S279D]”, the LC3-II conversion result with LC3 was “increased LC3-II conversion”. For the same substance, in the assay with p62, the p62 degradation entry is recorded as “increased p62 degradation”.
